Measured values from patent publication US9670190B2, “Pyridinyl and pyrimidinyl sulfonamide derivatives as chemokine receptor modulators” (Allergan, Inc., priority 2013, dated 2017).
Blank lines part the entries; values can stand above or below the molecule they belong to.

Target: T1, CCR2 (Homo sapiens, UniProt P41597)
T1 construct: expressed in transfected cells
Experiment: CCR2 calcium activity assay (FLIPR Tetra) in HEK-Gqi5 cells stably expressing CCR2
Assay type: cell-based
Details: calcium activity on FLIPR Tetra, chemokine positive control agonist; for IC50: read-out: IC50 (nM), activity at CCR2 receptor
Experimental: HEK-Gqi5 cells stably expressing CCR2 were cultured in DMEM high glucose, 10% FBS, 1% PSA, 400 μg/ml geneticin and 50 μg/ml hygromycin. Appropriate positive control chemokines (MCP-1, MIP1A or RANTES) was used as the positive control agonist for screening compound-induced calcium activity assayed on the FLIPR^Tetra. The drug plates were prepared in 384-well microplates using the EP3 and the MultiPROBE robotic liquid handling systems. Compounds were synthesized and tested for CCR2 activity.

T1 sequence (P41597 whole entry, species assumed): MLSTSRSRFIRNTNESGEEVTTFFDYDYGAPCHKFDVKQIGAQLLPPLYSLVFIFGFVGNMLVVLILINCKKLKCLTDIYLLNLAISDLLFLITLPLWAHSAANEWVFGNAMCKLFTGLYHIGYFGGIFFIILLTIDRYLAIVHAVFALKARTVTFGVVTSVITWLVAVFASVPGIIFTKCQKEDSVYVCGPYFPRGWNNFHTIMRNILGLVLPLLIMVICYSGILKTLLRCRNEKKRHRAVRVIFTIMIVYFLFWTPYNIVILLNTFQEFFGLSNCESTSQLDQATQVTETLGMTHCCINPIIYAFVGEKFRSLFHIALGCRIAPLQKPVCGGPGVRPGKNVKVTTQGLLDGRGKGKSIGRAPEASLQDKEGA

% ANTAGONISM: 101%
IC50: 135 nM
SMILES: O=S(=O)(Cc1ccccc1)c1ncncc1NS(=O)(=O)c1cc2ccccc2o1 [Compound 2, N-[4-(benzylsulfonyl)pyrimidin-5-yl]-1-benzofuran-2-sulfonamide]

% ANTAGONISM: 46%
SMILES: O=S(=O)(Nc1cc(Cl)cnc1SCc1ccccc1)c1ccc(Cl)c(Cl)c1 [Compound 7, N-[2-(benzylsulfanyl)-5-chloropyridin-3-yl]-3,4-dichlorobenzenesulfonamide]

% ANTAGONISM: 60%
SMILES: O=S(=O)(Nc1cc(Cl)cnc1SCc1ccccc1)c1ccc(Cl)s1 [Compound 8, N-[2-(benzylsulfanyl)-5-chloropyridin-3-yl]-5-chlorothiophene-2-sulfonamide]

% ANTAGONISM: 97%
IC50: 37 nM
SMILES: O=S(=O)(Cc1ccccc1)c1ncc(Cl)cc1NS(=O)(=O)c1ccc(Cl)c(Cl)c1 [Compound 9, N-[2-(benzylsulfonyl)-5-chloropyridin-3-yl]-3,4-dichlorobenzenesulfonamide]

% ANTAGONISM: 87%
IC50: 119 nM
SMILES: O=S(=O)(Nc1cc(Cl)cnc1[S+]([O-])Cc1ccccc1)c1ccc(Cl)c(Cl)c1 (centres unmarked) [Compound 10, N-[2-(benzylsulfinyl)-5-chloropyridin-3-yl]-3,4-dichlorobenzenesulfonamide]

% ANTAGONISM: 89%
IC50: 263 nM
SMILES: O=S(=O)(Cc1ccccc1)c1ncc(Cl)cc1NS(=O)(=O)c1ccc(Cl)s1 [Compound 11, N-[2-(benzylsulfonyl)-5-chloropyridin-3-yl]-5-chlorothiophene-2-sulfonamide]

% ANTAGONISM: 77%
SMILES: O=S(=O)(Nc1cc(Cl)cnc1[S+]([O-])Cc1ccccc1)c1ccc(Cl)s1 (centres unmarked) [Compound 12, N-[2-(benzylsulfinyl)-5-chloropyridin-3-yl]-5-chlorothiophene-2-sulfonamide]

The next lines start with the molecule.

SMILES: O=S(=O)(Nc1cncnc1SCc1ccccc1)c1cc2ccccc2o1 [Compound 1, N-[4-(benzylsulfanyl)pyrimidin-5-yl]-1-benzofuran-2-sulfonamide]
% ANTAGONISM: 44%

SMILES: O=S(=O)(Nc1cncnc1[S+]([O-])Cc1ccccc1)c1cc2ccccc2o1 (centres unmarked) [Compound 3, N-[4-(benzylsulfinyl)pyrimidin-5-yl]-1-benzofuran-2-sulfonamide]
% ANTAGONISM: 95%
IC50: 588 nM

SMILES: O=S(=O)(Nc1ccncc1SCc1ccccc1)c1cc2ccccc2o1 [Compound 4, N-[3-(benzylsulfanyl)pyridin-4-yl]-1-benzofuran-2-sulfonamide]
% ANTAGONISM: 100%
IC50: 485 nM

SMILES: O=S(=O)(Nc1cc[n+]([O-])cc1SCc1ccccc1)c1cc2ccccc2o1 [Compound 5, N-[3-(benzylsulfanyl)-1-oxidopyridin-4-yl]-1-benzofuran-2-sulfonamide]
% ANTAGONISM: 94%
IC50: 8 nM

SMILES: O=S(=O)(Cc1ccccc1)c1cnccc1NS(=O)(=O)c1cc2ccccc2o1 [Compound 6, N-[3-(benzylsulfonyl)pyridin-4-yl]-1-benzofuran-2-sulfonamide]
% ANTAGONISM: 95%
IC50: 17 nM
